Holding throughout (assay type): physicochemical, human
Series [1] can be described thus: LC/MS of serum sample: time from blood collection to centrifugation (Table J). To be noted: for Increase or decrease / Time when compound is affected: serum sample, LC/MS; for Increase or decrease: detection intensity vs 15 minutes from blood collection to centrifugation; for Time when compound is affected: time from blood collection to centrifugation, detection intensity changed by 30% or more vs 15 minutes. An outline of the steps:
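Serum from blood centrifuged at room temperature, 3500 rpm, 5 min, then frozen; analysed by LC/MS on a Discovery HS F5-3 column at 40 °C. Mobile phase: 0.1% formic acid in water/acetonitrile, 0.25 mL/min, electrospray MRM. Values are intensity relative to a 15 min collection-to-centrifugation time.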

Series [2] in a line: LC/MS of serum sample: time from centrifugation to isolation (Table K). Also noted: key to Rate of increase or decrease: detection intensity relative to the 30-minute value set as 1. Conditions: for Increase or decrease / Time when compound is affected: serum sample, LC/MS; for Increase or decrease: detection intensity vs 30 minutes from centrifugation to isolation; for Time when compound is affected: time from centrifugation to isolation, detection intensity changed by 30% or more vs 30 minutes. On the procedure: After standing, the blood sample was subjected to centrifugation under a condition of room temperature, 3500 rpm, and 5 minutes. […] After centrifugation, the blood-collecting vessel was left to stand at room temperature, and the serum was isolated during this time. Here, in order to investigate how the detection intensity of molecules contained in the sample was affected in cases where the time during which the blood-collecting vessel was left at room temperature was set to 1 hour and 6 hours as compared to that in a case where the time was set to 30 minutes, preparations were performed under the respective conditions of 30 minutes, 1 hour, and 6 hours. The obtained serum sample was frozen and stored. Here, in order to investigate how the detection intensity of molecules contained in the sample was affected in cases where freezing and thawing was performed 4 times, 6 times, and 10 times after freezing as compared to that in a case where freezing and thawing was performed 2 times after freezing, freezing and thawing was performed under the respective conditions of 2, 4, 6, and 10 times.
Frozen blood plasma samples and serum samples were subjected to GC/MS or LC/MS. In GC/MS, the blood plasma samples and serum samples were subjected to methoxymation and trimethylsilylation and then introduced to GC-MS.
Analysis column: Discovery HS F5-3 (inner diameter of 2.1 mm, length of 150 mm, film thickness of 3 μm) (Sigma-Aldrich)
Column temperature: 40° C.
(A) 0.1% formic acid (dissolved in water)
(B) 0.1% formic acid (dissolved in acetonitrile)
Flow velocity: 0.25 mL/min
Ionization method: electrospray
Temperature: • Desolvation Line (DL) temperature: 250° C. • Heat block temperature: 400° C. • Interface temperature: 300° C.
Gas flow rate: • Nebulizer gas flow rate: 3.0 L/min • Drying gas flow rate: 10.0 L/min • Heating gas flow rate: 10.0 L/min
Mode: multiple reaction monitoring (MRM)
The rate of increase or decrease in Table K is the value of detection intensity relative to 1 that is the detection intensity in a case where the time from centrifugation to isolation is set to 30 minutes.

Series [3] can be described thus: LC/MS of serum sample: number of times of freezing and thawing (Table M). On the set-up: key to Rate of increase or decrease: detection intensity relative to 1 at 2 freeze-thaw cycles. To be noted: for Rate of increase or decrease: detection intensity relative to 1 at 2 times; for Number of times when compound is affected / Increase or decrease: serum sample, LC/MS; for Number of times when compound is affected: detection intensity changed by 30% or more vs 2 times of freezing and thawing; for Increase or decrease: detection intensity vs 2 times of freezing and thawing. An outline of the steps:
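Serum was isolated at room temperature after centrifugation at room temperature, 3500 rpm, 5 minutes, then frozen and freeze-thawed 2, 4, 6 or 10 times. LC/MS used a Discovery HS F5-3 column at 40° C with formic acid water/acetonitrile, electrospray MRM. Intensity is relative to 2 freeze-thaw cycles.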

The nature of series [4]: LC/MS of blood plasma sample: time from blood collection to centrifugation (Table D). To be noted: for Rate of increase or decrease: detection intensity relative to 1 at 15 minutes; for Rate of increase or decrease / Increase or decrease: blood collection to centrifugation; for Increase or decrease: detection intensity; for Rate of increase or decrease (second value, decrease) / Rate of increase or decrease (first value, increase): different from individual to individual, relative to 1 at 15 minutes, collection to centrifugation; for Rate of increase or decrease (second value, decrease): individuals with decrease; for Rate of increase or decrease (first value, increase): individuals with increase. An outline of the steps: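 Healthy-subject blood (5 mL, EDTA) cooled and held at 4 °C before centrifugation (4 °C, 3000 rpm, 15 min), with plasma then frozen. LC/MS on Discovery HS F5-3 column at 40 °C, 0.1% formic acid water/acetonitrile, 0.25 mL/min, electrospray, MRM; intensities relative to 15 min collection-to-centrifugation set as 1.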

A short description of series [5]: LC/MS of blood plasma sample: number of times of freezing and thawing (Table F). Conditions: for Rate of increase or decrease: detection intensity relative to 1 at 2 times; for Increase or decrease: detection intensity. Put shortly: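 Human blood from a healthy subject drawn into EDTA tubes, cooled to 4° C within 1 min or after ≥5 min, centrifuged at 4° C, 3000 rpm, 15 min. Plasma frozen, then freeze-thawed 2, 4, 6 or 10 times and analysed by LC/MS (ESI, MRM). Intensities expressed relative to 2 freeze-thaw cycles set as 1.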

Series [6] in a line: GC/MS of blood plasma sample: time from blood collection to centrifugation (Table A). Put shortly: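 EDTA blood from a healthy subject was cooled at 4° C, centrifuged at 4° C, 3000 rpm, 15 minutes, and plasma was frozen. After methoxymation and trimethylsilylation, samples ran on GC/MS (BPX5 column, 60-330° C gradient, electron ionization, MRM). Intensity is relative to 15 minutes from collection to centrifugation.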

Series [7] can be described thus: GC/MS of blood plasma sample: time from blood collection to cooling of blood (Table B). Also noted: key to Rate of increase or decrease / Rate of increase or decrease (first value, increase): detection intensity relative to 1 at cooling time ≤1 min. An outline of the steps: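 Blood drawn at room temperature into EDTA tubes, mixed, then cooled at 4° C. within 1 minute or less versus 5 minutes or more before centrifugation (4° C., 3000 rpm, 15 minutes). Plasma was frozen, methoxymated and trimethylsilylated, and analysed by EI GC/MS in MRM mode. Values are detection intensity relative to the ≤1 minute condition.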

Series [8] in a line: GC/MS of blood plasma sample: number of times of freezing and thawing (Table C). An outline of the steps: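 EDTA plasma from a healthy subject, cooled within 1 min or after 5+ min, centrifuged 4 °C/3000 rpm/15 min, frozen, then freeze-thawed 2, 4, 6 or 10 times. Methoximated, trimethylsilylated samples run by GC/MS (BPX5 column, EI, MRM). Values are detection intensity relative to 2 freeze-thaw cycles set as 1.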

Where [9] appears, read: after 4 hours from blood collection to centrifugation, detection intensity relative to 1 at 15 minutes.
The mark [10] stands for this setting: after 1 hour, relative to 1 at 30 minutes, different from individual to individual, second value (decrease).
Where [11] appears, read: 4 times of freezing and thawing.
Where [12] appears, read: freezing and thawing 6 times vs 2 times.
[13] abbreviates: after 1 hour from centrifugation to isolation, detection intensity relative to 1 at 30 minutes.

`NCCC(=O)N[C@@H](Cc1cnc[nH]1)C(=O)O` [Carnosine, carnosine]: the “Rate of increase or decrease” value turned out to be 2.83 in series [1] (setting [9]); 1.41 in series [2] (after 1 hour, relative to 1 at 30 minutes, different from individual to individual, first value (increase)); 0.56 in series [2] (setting [10]); 0.59 in series [3] (setting [11]). The Increase or decrease result in series [1] is on record as “Increase”; in series [2], “Different from individual”; in series [3], “Decrease”. In addition, the entries for the “Time when compound is affected” value in series [1] and in series [2] were “After 4 hours” and “After 1 hour hours”, respectively. For the same compound, in series [3], the “Number of times when compound is affected” value (from here on “Number of times”) is recorded as 4 times.

Regarding `Nc1nc2c(ncn2[C@@H]2O[C@H](CO)[C@@H](O)[C@H]2O)c(=O)[nH]1` [Guanosine], the “Rate of increase or decrease” value in series [4] (after 6 hours) is given as 1.57; in series [5] (freezing and thawing 6 times) it was 0.58; in series [1] (setting [9]), 0.08; in series [2] (setting [13]) it was 0.57; in series [3] (6 times of freezing and thawing) it was 0.62. Moreover, the Increase or decrease result in series [4] (after 6 hours vs 15 minutes) is “Increase”; in series [5] (setting [12]), “Decrease”; in series [1] it was “Decrease”; in series [2], “Decrease”; in series [3] it was “Decrease”. The entries for the “Time when compound is affected” value in series [1] and in series [2] were “After 4 hours” and “After 1 hour hours”, respectively. Also, in series [3], the “Number of times” value stood at 6 times.

Regarding `N[C@@H](CSSC[C@H](N)C(=O)O)C(=O)O` [Cystine], the “Rate of increase or decrease” value in series [4] (after 12 hours) is 0.45; in series [5] (freezing and thawing 10 times), 0.54; in series [2] (setting [13]) it was 0.67; in series [3] (setting [11]) it was 1.56. Moreover, the Increase or decrease entry in series [4] (after 12 hours vs 15 minutes) is recorded as “Decrease”; in series [5] (freezing and thawing 10 times vs 2 times), “Decrease”; in series [2] it was “Decrease”; in series [3] it was “Increase”. Further, in series [2], the “Time when compound is affected” value is recorded as “After 1 hour hours”. Moreover, the “Number of times” value in series [3] was determined as 4 times.

As to `Nc1nc2c(ncn2[C@@H]2O[C@@H]3COP(=O)(O)O[C@H]3[C@H]2O)c(=O)[nH]1` [Guanosine 3′,5′-cyclic monophosphate, guanosine 3′,5′-cyclic monophosphate], the “Rate of increase or decrease” value in series [1] (after 4 hours, relative to 1 at 15 minutes, different from individual to individual, first value (increase)) was found to be 3.62; in series [1] (after 4 hours, relative to 1 at 15 minutes, different from individual to individual, second value (decrease)) it was 0.58; in series [2] (setting [10]), 0.46; in series [3] (setting [11]), 1.47. In addition, the Increase or decrease entry is recorded as “Different from individual” in series [1], “Different from individual” in series [2] and “Increase” in series [3]. Moreover, the “Time when compound is affected” value in series [1] was “After 4 hours”; in series [2] it was “After 1 hour hours”. Besides, the “Number of times” value in series [3] is 4 times.

Take `O=c1ccn([C@@H]2O[C@H](CO)[C@@H](O)[C@H]2O)c(=O)[nH]1` [Uridine]: the Increase or decrease result was “Different from individual” in series [6] (detection intensity, blood collection to centrifugation, after 4 hours vs 15 minutes); “Different from individual” in series [7] (detection intensity, blood collection to cooling 5 minutes or more vs 1 minute or less); “Decrease” in series [8] (detection intensity, freezing and thawing 6 times vs 2 times); “Different from individual” in series [4] (after 12 hours vs 15 minutes); “Increase” in series [5] (setting [12]); “Increase” in series [1]. In addition, the Increase or decrease entry in series [3] is given as “Decrease”. The “Rate of increase or decrease (second value, decrease)” value in series [6] (different from individual to individual, individuals with decrease, relative to 1 at 15 minutes, collection to centrifugation, after 4 hours) was 0.48; in series [7] (different from individual to individual, individuals with decrease, relative to 1 at 1 minute or less, collection to cooling 5 minutes) it was 0.64; in series [4] (after 12 hours), 0.60. For the same compound, the “Rate of increase or decrease (first value, increase)” value is 1.48 in series [6] (different from individual to individual, individuals with increase, relative to 1 at 15 minutes, collection to centrifugation, after 4 hours); 2.62 in series [7] (different from individual to individual, individuals with increase, relative to 1 at 1 minute or less, collection to cooling 5 minutes); 1.67 in series [4] (after 12 hours). Besides, the “Rate of increase or decrease” value amounted to 0.69 in series [8] (detection intensity relative to 1 at 2 times, freezing and thawing 6 times); 1.31 in series [5] (freezing and thawing 6 times); 1.42 in series [1] (setting [9]); 0.68 in series [3] (setting [11]). The “Time when compound is affected” value in series [1] is “After 4 hours”. In addition, in series [3], the “Number of times” value stood at 4 times.

For `C[S+]([O-])CC[C@H](N)C(=O)O` (some centres unmarked) [Methionine sulfoxide], the Increase or decrease result in series [4] (after 12 hours vs 15 minutes) is “Different from individual”; in series [1], “Increase”; in series [2], “Increase”; in series [3] it was “Increase”. Also, in series [4] (after 12 hours), the “Rate of increase or decrease (second value, decrease)” value turned out to be 0.54. In addition, in series [4] (after 12 hours), the “Rate of increase or decrease (first value, increase)” value came to 1.36. The “Rate of increase or decrease” value in series [1] (after 6 hours from blood collection to centrifugation, detection intensity relative to 1 at 15 minutes) amounted to 1.65; in series [2] (after 6 hours from centrifugation to isolation, detection intensity relative to 1 at 30 minutes) it was 1.77; in series [3] (setting [11]), 1.55. Further, the “Time when compound is affected” value in series [1] and in series [2] was “After 6 hours” throughout. Moreover, the “Number of times” value in series [3] is 4 times.

Values taken from patent publication US20220146526A1, “METHOD FOR EVALUATING SAMPLE, ANALYSIS METHOD, METHOD FOR DETECTING DEGRADED SAMPLE, MARKER FOR DETECTING DEGRADED BLOOD PLASMA SAMPLE, AND MARKER FOR DETECTING DEGRADED SERUM SAMPLE” (SHIMADZU CORPORATION, priority 2019, published 2022).
